Measurements as given in publication PMC10535624, “Curcuminoid Chalcones: Synthesis, Stability, and New Neuroprotective and Sonosensitising Activities” (Pharmaceuticals, 2023).
Values joined by “and” are separate entries in the source; they are usually repeats but may differ in a detail not shown here. Identical values can stand only once.

Experiments:
[1] = Photostability in the solutions (RP-HPLC); assay type: physicochemical; conditions: MeOH solution; for % Decomposition / Ct: 1.2 × 10^6 lux·h, 22 h; for ICH Classification: light
Procedure: However, as a result of the action of light, both compounds degraded completely (Table 6, Figure 12). The study was conducted in methanol solutions, irradiated in quartz cuvettes, and in solutions protected from light (aluminium foil). […] During irradiation, the temperature in the Suntest chamber was 35 °C. It was, therefore, concluded that both compounds are photolabile in solutions. […] The visible peaks with Rt values of 6.3 (Figure 12a,c) and 4.4 min (Figure 12b,d) were impurities of compounds 2 and 6, respectively.
Stock solutions of the test substances (2 or 6) were prepared by dissolving 1 mg of each test substance in 1.5 mL of a mixture of DMSO and MeOH (1:6, v/v). Then, 5 mL solutions of the tested compounds (c ~ 15 µg/mL) in MeOH were prepared. […] Each of the samples (protected and irradiated) was transferred to the chromatographic column. Samples before irradiation were also subjected to chromatographic analysis (t = 0) (Table 2).

[2] = Stress test: strong acid, strong base and neutral degradation (RP-HPLC); assay type: physicochemical
Procedure: Several tests were conducted using the ICH guidelines to assess the compound’s stability. In the stress test, two structural isomers of ester-type hybrid compounds were chosen to estimate the structure’s relationship to the compound’s stability. The tested substances were subjected to hydrolysis–solvolysis in neutral, acidic, and alkaline media. As solvents, water, hydrochloric acid, and sodium hydroxide were used in appropriate concentrations.
Reversed-phase HPLC was used to analyse the degree of degradation. Chromatograms were developed with DAD detection at 254 nm, 308 nm (λmax for 2), and 340 nm (λmax for 6). […] .
Then, 2.0 mL samples of the tested solutions (c ~60 µg/mL) were prepared in hydrochloric acid (0.1; 0.01 M) or sodium hydroxide solution (0.1, 0.01 M) and demineralised water. The solutions were transferred to glass vials, encapsulated, and stored in a thermal chamber at 90 °C, 40 °C, or 25 °C. After the appropriate time (Table 1), the samples were cooled, diluted with methanol (1:1), and transferred to the chromatography column.

[3] = Photostability in the solid state (IR spectra of KBr tablets); conditions: for ICH Classification: light, solid phase; for Compatibility of the IR spectrum with the spectrum before irradiation: solid phase (KBr tablet)
[4] = Stress test: oxidative degradation (RP-HPLC); assay type: physicochemical; conditions: for ICH Classification: oxidising environment
Procedure: Stock solutions of the test substances (2 or 6) were prepared by dissolving 1 mg of each test substance in 1.5 mL of a mixture of DMSO and MeOH (1:6, v/v). Then, 2 mL solutions of compounds 2 and 6 were prepared at ~30 μg/mL in a hydrogen peroxide solution (1, 3, and 10%). The solutions were placed in dark glass vials and encapsulated, and after an appropriate time (Table 1) the samples were diluted with methanol (1:1, v/v) and transferred to the chromatographic column.

[5] = biological target: T1, glutathione reductase (GR) (Homo sapiens, UniProt P00390); test: Effect on GR activity; assay type: biochemical; conditions: samples 3 mM/dm^3 in DMSO; mean ± SEM, n = 3
T1 sequence (P00390 44-522): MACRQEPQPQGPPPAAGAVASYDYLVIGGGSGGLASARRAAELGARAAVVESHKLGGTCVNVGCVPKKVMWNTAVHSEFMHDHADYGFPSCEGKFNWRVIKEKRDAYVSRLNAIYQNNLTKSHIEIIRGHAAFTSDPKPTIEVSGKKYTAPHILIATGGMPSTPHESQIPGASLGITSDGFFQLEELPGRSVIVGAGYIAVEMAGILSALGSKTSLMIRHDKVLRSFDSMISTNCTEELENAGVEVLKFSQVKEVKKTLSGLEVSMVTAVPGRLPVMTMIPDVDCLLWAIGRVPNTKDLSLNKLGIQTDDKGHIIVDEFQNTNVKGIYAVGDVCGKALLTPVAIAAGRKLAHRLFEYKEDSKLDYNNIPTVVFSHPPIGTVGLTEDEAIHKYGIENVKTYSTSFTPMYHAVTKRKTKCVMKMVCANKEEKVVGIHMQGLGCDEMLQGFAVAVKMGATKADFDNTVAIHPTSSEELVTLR
Procedure: We decided to extend the study by measuring the compounds’ ability to inhibit glutathione reductase (GR) and GPx activities, the human cells’ main endogenous enzymatic defence systems. Therefore, we checked the influence of some curcuminoid chalcones on GR and GPx using in vitro spectroscopic methods (Table 2). Moreover, the effects of curcuminoid chalcones on CAT activity were estimated (Table 2).
The samples were dissolved in DMSO (Sigma D4540) to obtain a concentration of 3 mM/dm^3.
The analyses were performed strictly as described by Studzińska-Sroka et al..

[6] = Hydroxyl radical antioxidant capacity (HORAC); conditions: samples 1 mg/mL DMSO; mean ± SEM, n = 3
[7] = biological target: BChE (Homo sapiens, UniProt P06276); assay type: biochemical; conditions: samples 3 mM/dm^3 in DMSO, 0.035 mL; mean ± SEM, n = 3
[8] = protected from light (aluminium foil), 35 °C
[9] = acidic environment, HCl 0.01 M, 40 °C, 8 h
[10] = alkaline environment, NaOH 0.01 M, 25 °C, 2 h
[11] = neutral environment, H2O, 90 °C, 24 h
[12] = not protected, 1.2 × 10^6 lux·h
[13] = not protected, 6.0 × 10^6 lux·h

Chain of BChE (P06276 29-602, species assumed): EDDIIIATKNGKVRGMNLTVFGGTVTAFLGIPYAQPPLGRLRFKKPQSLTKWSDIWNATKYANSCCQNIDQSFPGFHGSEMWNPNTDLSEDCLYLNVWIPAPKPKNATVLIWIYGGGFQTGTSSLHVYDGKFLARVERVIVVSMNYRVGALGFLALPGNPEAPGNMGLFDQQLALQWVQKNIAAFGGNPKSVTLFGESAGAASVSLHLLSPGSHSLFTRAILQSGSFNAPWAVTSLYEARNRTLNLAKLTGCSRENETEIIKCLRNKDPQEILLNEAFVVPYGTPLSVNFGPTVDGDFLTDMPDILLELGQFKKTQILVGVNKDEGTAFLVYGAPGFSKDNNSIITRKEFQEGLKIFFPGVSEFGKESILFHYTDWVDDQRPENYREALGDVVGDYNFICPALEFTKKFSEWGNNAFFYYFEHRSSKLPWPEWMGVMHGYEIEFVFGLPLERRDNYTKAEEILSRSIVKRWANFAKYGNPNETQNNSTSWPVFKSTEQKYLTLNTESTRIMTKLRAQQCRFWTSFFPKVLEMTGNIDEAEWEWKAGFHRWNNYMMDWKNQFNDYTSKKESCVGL

Row | SMILES | % Decomposition ([1]; not protected) [%] | Ct ([1]; not protected) [µg/mL] | % Decomposition [1, 8] | Ct [1, 8] [µg/mL] | ICH Classification [1] | % Decomposition ([2]; H2O, 90 °C, 24 h) [%] | Ct ([2]; H2O, 90 °C, 24 h) [µg/mL] | % Decomposition ([2]; HCl 0.01 M, 40 °C, 8 h) | Ct ([2]; HCl 0.01 M, 40 °C, 8 h) [µg/mL] | % Decomposition ([2]; HCl 0.1 M, 90 °C, 16 h) [%] | Ct ([2]; HCl 0.1 M, 90 °C, 16 h) [µg/mL] | % Decomposition ([2]; NaOH 0.01 M, 25 °C, 2 h) [%] | Ct ([2]; NaOH 0.01 M, 25 °C, 2 h) [µg/mL] | % Decomposition ([2]; NaOH 0.1 M, 90 °C, 16 h) [%] | Ct ([2]; NaOH 0.1 M, 90 °C, 16 h) [µg/mL] | ICH Classification [2, 9] | ICH Classification [2, 10] | ICH Classification [2, 11] | ICH Classification [3] | Compatibility of the IR spectrum with the spectrum before irradiation [3, 12] | also measured
1 | COc1cc(C=CC(=O)c2ccccc2)ccc1OC(=O)C(C)c1ccc(CC(C)C)cc1 (centres unmarked) [Compound 2, 2-Methoxy-4-(3-oxo-3-phenylprop-1-en-1-yl)phenyl-2-(4-isobutylphenyl)-propionate] | 100 | 0 | 68% and 68.2% | 4.8 | Photolabile | 24.4 | 46.3 | 44% and 43.8% | 33.7 | 91.8 | 5.0 | 100 | 0 | 100 | 0 | very unstable | extremely unstable | unstable | Photolabile | 0.9404 | Compatibility of the IR spectrum with the spectrum before irradiation [3, 13]: 0.9017; Compatibility of the IR spectrum with the spectrum before irradiation ([3]; protected, 1.2 × 10^6 lux·h): 0.9995; Compatibility of the IR spectrum with the spectrum before irradiation ([3]; protected, 6.0 × 10^6 lux·h): 0.9994; % Decomposition ([4]; H2O2 1%, 30 min): <0.5%; Ct ([4]; H2O2 1%, 30 min): 29.9 µg/mL; % Decomposition ([4]; H2O2 3%, 24 h): <0.5%; Ct ([4]; H2O2 3%, 24 h): 29.8 µg/mL; % Decomposition ([4]; H2O2 10%, 24 h): <0.5%; Ct ([4]; H2O2 10%, 24 h): 30.1 µg/mL; ICH Classification ([4]; H2O2 10%, 24 h): practically stable; GR Inhibition (%) [5]: 27.1 ± 4.0%; GR activity (NADPH consumption rate) [5]: 1018 ± 150 nmol Depleted NADPH/min; HORAC, Gallic Acid Equivalents [6]: 24.2 ± 2.3 µg/mL; BChE % (inhibition) [7]: 89.7 ± 4.8%; BChE, Equivalent Concentration of Reference Compound Magniflorine [7]: 0.35 ± 0.02 µg/mL; BChE, Equivalent Concentration of Reference Compound Rivastigmine [7]: 0.26 ± 0.01 µg/mL
2 | COc1ccc(C=CC(=O)c2ccccc2)cc1OC(=O)C(C)c1ccc(CC(C)C)cc1 (centres unmarked) [Compound 6, 2-Methoxy-5-(3-oxo-3-phenylprop-1-en-1-yl)phenyl-2-(4-isobutylphenyl)-propionate] | 100 | 0 | 7.9% | 13.8 | Photolabile | 23.9 | 50.9 | 18% and 17.8% | 49.3 | 97.8 | 1.5 | 100 | 0 | 100 | 0 | very unstable | extremely unstable | unstable | Photolabile | 0.9962 | Compatibility of the IR spectrum with the spectrum before irradiation [3, 13]: 0.9752; Compatibility of the IR spectrum with the spectrum before irradiation ([3]; protected, 1.2 × 10^6 lux·h): 0.9997; Compatibility of the IR spectrum with the spectrum before irradiation ([3]; protected, 6.0 × 10^6 lux·h): 0.9993; % Decomposition ([4]; H2O2 1%, 30 min): <0.5%; Ct ([4]; H2O2 1%, 30 min): 29.7 µg/mL; % Decomposition ([4]; H2O2 3%, 24 h): <0.5%; Ct ([4]; H2O2 3%, 24 h): 29.9 µg/mL; % Decomposition ([4]; H2O2 10%, 24 h): <0.5%; Ct ([4]; H2O2 10%, 24 h): 30.0 µg/mL; ICH Classification ([4]; H2O2 10%, 24 h): practically stable; GR Inhibition (%) [5]: did not inhibit and -; HORAC, Gallic Acid Equivalents [6]: 20.4 ± 3.0 µg/mL; BChE % (inhibition) [7]: 77.3 ± 5.2%; BChE, Equivalent Concentration of Reference Compound Magniflorine [7]: 0.30 ± 0.02 µg/mL; BChE, Equivalent Concentration of Reference Compound Rivastigmine [7]: 0.22 ± 0.02 µg/mL
